In patent US5567704A, “R-enatiomerically pure hydroxylated xanthine compounds to treat baldness” (priority 1995, dated 1996):

Columns and labels:
murine B-cell = test: B-cell proliferation stimulated by anti-mu antibody and/or IL-4; format: cell-based; settings: anti-mu antibody crosslinked and/or IL-4, FIG. 2
Method: A B-cell proliferation assay determines the effect of the inventive compounds on inhibiting proliferation of stimulated B-cells, stimulated by an anti-mu antibody (40 μg/ml), IL-4 or PMA (2.5 nM). Ramos B-cell tumor cells or murine splenocytes can be incubated with a stimulating agent, an inventive compound and tritiated thymidine to measure inhibition of cell proliferation caused by the stimulating agent.

stromelysin/PUMP-1 = test: PUMP-1 activity induced by IL-1; format: cell-based; settings: induced by 100 U/ml of IL-1
Source text: Metalloproteases mediate tissue damage such as glomerular diseases of the kidney, joint destruction in arthritis, and lung destruction in emphysema, and play a role in tumor metastases. Three examples of metalloproteases include a 92 kD type V gelatinase induced by TNF, IL-1 and PDGF plus bFGF, a 72 kD type IV collagenase that is usually constitutive and induced by TNF or IL-1, and a stromelysin/PUMP-1 induced by TNF and IL-1. The inventive compounds can inhibit TNF or IL-1 induction of the 92 kD type V gelatinase inducable metalloprotease. Moreover, CT 1501R reduced PUMP- 1 activity induced by 100 U/ml of IL-1 to 15% of its control levels. […] Accordingly, the inventive compounds prevent induction of certain metalloproteases induced by IL-1 or TNF and are not involved with constitutively produced proteases (e.g., 72 kD type IV collagenase) involved in normal tissue remodeling.

[1] = system: IL-1α release in peritoneal macrophages; test: IL-1α release in LPS activated PEC (ELISA); format: cell-based, murine; settings: Mus musculus, Peritoneal macrophage, at 24 hours after LPS, FIG. 19, read-out: maximum inhibition of IL-1α release
Method: Murine peritoneal exudate cell macrophages (PEC) were isolated by perfusion of mouse peritoneum and plated into 96-well trays at 5×10^5 cells per well. Cells were stimulated with 5 μg/ml Salmonella abortus equi -derived endotoxin (LPS; Sigma Chemical Co., L-1887) or […] IL-1α (Genzyme; Cambridge, Mass.) with or without the addition of CT1501R added to the cultures one hour prior to addition of the stimulus. At various times thereafter, supernatants were removed and levels of either TNF-α or IL-1α were assayed using commercial 96-well microtiter immunoassay kits (Genzyme; TNF; Endogen, Boston, Mass.; IL-1α) according to manufacturer's specifications. For the adhesion studies, early passage human umbilical vein endothelial cells (HUVEC) were obtained. from commercial suppliers (Clonetics, San Diego, Calif. or Cell Systems, Seattle, Wash.) and cultured in defined, Hepes buffered, serum free medium (Cell Systems, cat 301-180) supplemented with acidic FGF (Cell Systems cat 401-111). 4000 cells were plated into each well of a 96-well microtiter plate and allowed to incubate for 72 hrs at 37° C. […] After addition of […] Hanks Balanced Salt Solution (HBSS), the microtiter plate was then analyzed on a Millipore Cytofluor fluorescent plate reader (excitation 488 nm; emission 525 nm). […]

[2] = endotoxin induced lethality in mice (survival); format: in vivo, mouse; settings: mouse, in vivo, ip; CT1501R alone, no LPS, ten mice, same schedule
Method: Animals were treated with 10 μg/gm of LPS (i.v.) Immediately following the LPS (t=0), 2 hrs after the LPS (t=2) or 4 hrs following LPS (t=4) the mice were treated with their first treatment of CT1501R (100 mg/kg, i.p.). The mice were treated with CT1501R three times per day thereafter, and animal survival was monitored.
This example illustrates the effect of CT1501R on survival in mice given a lethal dose of endotoxin. We determined if CT1501R protects against endotoxin induced lethality in a murine model. Septic shock was modeled by endotoxin injection of 6-8 week old female Balb/c mice similar to previously published reports (Ashkenazi et al. Proc. Natl. Acad. Sci. U.S.A. 88: 10535-10539, 1991.) under protocols approved by the Animal Use Committee of the Biomembrane Institute, Seattle, Wash. Animals were injected intravaneously (i.v.) with an approximate LD100 dose (10 μg) of Salmonella abortus equi-derived endotoxin (Sigma Chemical Co., L-1887) in phosphate buffered saline (PBS). […] Control mice were injected at the same times with a similar volume of vehicle control (PBS). Survival was followed for at least 72 hours.
Ten mice were treated each with PBS alone or CT1501R alone on the same schedule as the experimental mice. […] Endotoxin survival data were summarized from a total of six (6) independent experiments. Summary Table 1 details the results of each of the six experiments. In FIG. 5, each time point represents a minimum of three (3) experiments comprising at least twenty (20) mice per group. A probability analysis of the survival data using a Fisher's Exact One Tailed Test is given as Table 3. Significant protection was conferred if CT1501R was administered immediately after the LPS treatment. The cumulative percent survival at 72 hours post LPS treatment was 60% compared to 7% for the LPS-only treated animals (p=<0.0005; Table 3).

Question: For `C[C@@H](O)CCCCn1c(=O)c2c(ncn2C)n(C)c1=O` [CT1501R, (R)-1-(5-hydroxyhexyl)-3,7-dimethylxanthine], which “inhibition of B-cell proliferation” value (murine B-cell) is on record?
Answer: The value was “inhibited B-cell proliferation”.

Question: And the “PUMP-1 activity, % of control levels” value (stromelysin/PUMP-1)?
Answer: Its value is 15%.

Question: What about the inhibition at 250 µM [1] of the same compound?
Answer: The inhibition at 250 µM was about 50%.

Question: And the survival [2]?
Answer: The survival was 100%.
